Patent US20060062732A1, “Medicine for detecting lipid components in vivo and vascular endoscope” (Yasumi UCHIDA, priority 2004, published 2006)

Tests used:
[1] = Self-fluorescence of dyes and plaque substances by fluorescent microscopy; type: physicochemical; parameters: key to Self-fluorescence colour: B: blue.; G: green.; O: orange.; W: white.; Y: yellow; conditions: for Self-fluorescence present or not: exciting 360/emitting 420 nm or exciting 470/emitting 515 nm
[2] = molecular target: T1, ApoB100 (apolipoprotein B100) (Homo sapiens, UniProt P04114); test: Dye-evoked fluorescence of ApoB100, fluorescent microscopy; parameters: key: B: blue.; G: green.; O: orange.; W: white.; Y: yellow
T1 construct: purchased ICN Biomedicals, Ohio

[3] = molecular target: T1, ApoB100 (apolipoprotein B100); test: as above; parameters: key: RO: reddish orange; conditions: ApoB (Table 4)
[4] = molecular target: T1, ApoB100 (apolipoprotein B100); test: as above; parameters: key: B: blue.; Br: brown.; G: green.; Go: gold.; O: orange.; P: purple.; R: red.; SB: sky blue.; V: violet.; W: white.; Y: yellow; conditions: exciting 360 nm, emitting 420 nm
[5] = exciting filter 360 nm, emitting filter 420 nm
[6] = exciting filter 470 nm, emitting filter 515 nm
[7] = exciting 360 nm, emitting 420 nm
[8] = exciting 470 nm, emitting 515 nm

T1 sequence (P04114 28-4563, species assumed): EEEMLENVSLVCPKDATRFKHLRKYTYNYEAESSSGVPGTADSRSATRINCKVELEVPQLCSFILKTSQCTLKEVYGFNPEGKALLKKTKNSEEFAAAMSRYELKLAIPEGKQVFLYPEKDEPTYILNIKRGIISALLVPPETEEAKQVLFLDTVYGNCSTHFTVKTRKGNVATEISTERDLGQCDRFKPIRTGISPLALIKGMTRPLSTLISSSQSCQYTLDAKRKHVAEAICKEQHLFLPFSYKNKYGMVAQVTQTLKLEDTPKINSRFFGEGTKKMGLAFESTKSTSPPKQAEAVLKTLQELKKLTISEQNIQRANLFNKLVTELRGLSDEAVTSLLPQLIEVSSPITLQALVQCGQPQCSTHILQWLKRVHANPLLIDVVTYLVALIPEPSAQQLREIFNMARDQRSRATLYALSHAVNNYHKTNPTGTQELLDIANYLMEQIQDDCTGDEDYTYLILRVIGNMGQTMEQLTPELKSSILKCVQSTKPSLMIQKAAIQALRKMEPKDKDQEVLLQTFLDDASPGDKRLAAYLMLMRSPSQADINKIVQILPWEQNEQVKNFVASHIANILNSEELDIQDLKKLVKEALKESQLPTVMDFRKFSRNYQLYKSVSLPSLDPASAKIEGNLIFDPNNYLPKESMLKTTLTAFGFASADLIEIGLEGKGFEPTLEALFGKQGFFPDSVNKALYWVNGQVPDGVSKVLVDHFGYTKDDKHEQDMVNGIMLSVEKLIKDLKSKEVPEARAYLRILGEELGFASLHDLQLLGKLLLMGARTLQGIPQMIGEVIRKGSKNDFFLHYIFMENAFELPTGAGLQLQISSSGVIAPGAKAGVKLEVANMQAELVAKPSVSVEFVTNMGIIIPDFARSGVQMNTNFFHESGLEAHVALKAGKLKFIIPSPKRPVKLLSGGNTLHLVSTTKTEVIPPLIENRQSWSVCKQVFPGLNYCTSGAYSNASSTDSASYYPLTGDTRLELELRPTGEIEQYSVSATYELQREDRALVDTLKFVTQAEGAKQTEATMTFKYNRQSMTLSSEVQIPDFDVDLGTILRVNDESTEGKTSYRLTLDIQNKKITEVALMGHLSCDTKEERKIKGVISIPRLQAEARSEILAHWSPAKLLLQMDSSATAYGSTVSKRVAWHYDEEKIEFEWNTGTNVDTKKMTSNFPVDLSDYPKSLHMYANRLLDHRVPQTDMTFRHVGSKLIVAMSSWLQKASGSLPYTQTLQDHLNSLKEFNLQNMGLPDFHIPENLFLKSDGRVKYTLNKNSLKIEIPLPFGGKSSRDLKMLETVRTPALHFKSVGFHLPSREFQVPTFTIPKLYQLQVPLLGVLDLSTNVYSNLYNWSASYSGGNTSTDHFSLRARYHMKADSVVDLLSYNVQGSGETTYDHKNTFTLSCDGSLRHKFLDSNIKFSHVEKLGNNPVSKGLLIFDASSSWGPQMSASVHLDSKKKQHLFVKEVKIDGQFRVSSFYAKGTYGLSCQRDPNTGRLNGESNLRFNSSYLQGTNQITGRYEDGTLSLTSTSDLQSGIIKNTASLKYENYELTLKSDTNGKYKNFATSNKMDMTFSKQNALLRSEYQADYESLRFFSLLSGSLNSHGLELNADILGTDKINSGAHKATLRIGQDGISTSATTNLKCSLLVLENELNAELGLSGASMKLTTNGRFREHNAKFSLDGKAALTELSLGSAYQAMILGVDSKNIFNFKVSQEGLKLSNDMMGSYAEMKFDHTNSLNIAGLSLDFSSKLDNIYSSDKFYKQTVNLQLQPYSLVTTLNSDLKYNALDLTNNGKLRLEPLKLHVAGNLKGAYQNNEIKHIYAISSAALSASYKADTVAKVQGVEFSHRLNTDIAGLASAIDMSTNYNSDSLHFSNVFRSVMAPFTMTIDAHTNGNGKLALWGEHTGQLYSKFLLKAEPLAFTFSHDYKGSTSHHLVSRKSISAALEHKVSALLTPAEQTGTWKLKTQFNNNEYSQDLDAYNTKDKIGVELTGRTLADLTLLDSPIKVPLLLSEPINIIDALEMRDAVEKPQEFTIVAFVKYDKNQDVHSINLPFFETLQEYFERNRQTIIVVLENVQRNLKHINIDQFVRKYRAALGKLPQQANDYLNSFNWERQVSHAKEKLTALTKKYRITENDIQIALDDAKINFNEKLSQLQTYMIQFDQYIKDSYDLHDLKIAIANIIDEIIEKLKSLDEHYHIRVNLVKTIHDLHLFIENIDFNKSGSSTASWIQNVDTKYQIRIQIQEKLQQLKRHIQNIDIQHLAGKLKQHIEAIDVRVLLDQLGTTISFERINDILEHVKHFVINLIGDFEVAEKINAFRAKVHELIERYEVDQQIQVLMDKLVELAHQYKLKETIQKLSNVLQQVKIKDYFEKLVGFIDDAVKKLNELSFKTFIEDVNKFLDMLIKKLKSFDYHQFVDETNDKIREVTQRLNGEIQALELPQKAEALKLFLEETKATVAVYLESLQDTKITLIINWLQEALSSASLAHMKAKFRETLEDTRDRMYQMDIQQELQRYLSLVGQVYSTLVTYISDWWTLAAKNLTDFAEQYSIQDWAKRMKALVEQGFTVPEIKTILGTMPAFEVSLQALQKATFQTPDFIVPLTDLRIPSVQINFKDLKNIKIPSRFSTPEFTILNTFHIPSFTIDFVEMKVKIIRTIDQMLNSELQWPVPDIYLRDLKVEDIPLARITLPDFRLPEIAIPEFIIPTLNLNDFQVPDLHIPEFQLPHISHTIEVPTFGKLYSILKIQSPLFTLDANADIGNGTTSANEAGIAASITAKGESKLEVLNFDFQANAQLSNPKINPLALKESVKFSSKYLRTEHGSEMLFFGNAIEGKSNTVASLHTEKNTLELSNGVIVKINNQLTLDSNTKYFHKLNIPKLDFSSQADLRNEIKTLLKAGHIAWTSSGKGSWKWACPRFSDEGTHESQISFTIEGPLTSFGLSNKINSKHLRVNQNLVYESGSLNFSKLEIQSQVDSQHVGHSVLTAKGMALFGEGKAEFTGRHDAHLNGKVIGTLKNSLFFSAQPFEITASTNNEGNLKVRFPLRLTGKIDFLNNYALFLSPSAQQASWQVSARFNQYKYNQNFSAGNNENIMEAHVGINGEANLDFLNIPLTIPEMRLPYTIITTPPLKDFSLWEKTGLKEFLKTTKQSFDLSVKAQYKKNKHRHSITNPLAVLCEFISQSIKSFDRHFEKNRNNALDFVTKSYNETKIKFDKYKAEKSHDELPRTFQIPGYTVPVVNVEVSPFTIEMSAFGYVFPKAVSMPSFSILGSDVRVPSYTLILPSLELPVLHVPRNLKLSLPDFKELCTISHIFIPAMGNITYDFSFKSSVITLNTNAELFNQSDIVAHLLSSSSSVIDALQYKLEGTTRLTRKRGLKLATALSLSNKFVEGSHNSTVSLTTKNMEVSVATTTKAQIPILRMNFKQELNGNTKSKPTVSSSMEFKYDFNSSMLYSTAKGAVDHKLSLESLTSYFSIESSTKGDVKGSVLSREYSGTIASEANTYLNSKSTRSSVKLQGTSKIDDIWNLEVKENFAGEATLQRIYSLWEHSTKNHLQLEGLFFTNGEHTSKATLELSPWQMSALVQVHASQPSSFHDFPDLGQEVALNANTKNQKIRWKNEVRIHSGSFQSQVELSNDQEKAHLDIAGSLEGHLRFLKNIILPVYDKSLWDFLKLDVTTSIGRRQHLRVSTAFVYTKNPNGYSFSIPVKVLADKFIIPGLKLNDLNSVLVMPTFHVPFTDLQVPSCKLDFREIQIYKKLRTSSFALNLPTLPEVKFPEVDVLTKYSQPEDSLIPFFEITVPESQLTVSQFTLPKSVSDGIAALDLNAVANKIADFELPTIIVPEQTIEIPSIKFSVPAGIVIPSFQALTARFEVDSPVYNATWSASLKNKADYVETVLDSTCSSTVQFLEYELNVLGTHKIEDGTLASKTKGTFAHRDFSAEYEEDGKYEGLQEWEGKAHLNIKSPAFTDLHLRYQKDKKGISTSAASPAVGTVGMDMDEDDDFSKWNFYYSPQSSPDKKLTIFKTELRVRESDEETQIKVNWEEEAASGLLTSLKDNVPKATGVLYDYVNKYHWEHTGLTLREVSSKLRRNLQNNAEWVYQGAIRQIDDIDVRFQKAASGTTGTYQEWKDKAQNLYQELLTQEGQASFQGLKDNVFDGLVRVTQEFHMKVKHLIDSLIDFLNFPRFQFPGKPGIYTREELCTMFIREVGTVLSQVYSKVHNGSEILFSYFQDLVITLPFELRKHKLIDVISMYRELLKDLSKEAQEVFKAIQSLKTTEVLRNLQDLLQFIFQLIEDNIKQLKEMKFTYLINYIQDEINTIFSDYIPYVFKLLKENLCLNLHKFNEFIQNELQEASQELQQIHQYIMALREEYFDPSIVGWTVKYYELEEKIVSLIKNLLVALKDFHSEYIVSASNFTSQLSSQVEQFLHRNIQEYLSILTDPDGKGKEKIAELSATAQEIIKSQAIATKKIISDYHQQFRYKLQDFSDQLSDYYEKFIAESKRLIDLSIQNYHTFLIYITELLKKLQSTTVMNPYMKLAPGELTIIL

Molecule	Self-fluorescence present or not [1]	Self-fluorescence colour [1, 5]	Self-fluorescence colour [1, 6]	Dye-evoked fluorescence colour [2, 8]	further results
CCCCC/C=C\C/C=C\CCCCCCCC(=O)O[C@H]1CC[C@@]2(C)C(=CC[C@H]3[C@@H]4CC[C@H]([C@H](C)CCCC(C)C)[C@@]4(C)CC[C@@H]32)C1 [Cholesteryl linolate]	had self-fluorescence	W	Y		
Cc1cc(-c2ccc(/N=N/c3ccc4c(S(=O)(=O)O)cc(S(=O)(=O)O)c(N)c4c3O)c(C)c2)ccc1/N=N/c1ccc2c(S(=O)(=O)O)cc(S(=O)(=O)O)c(N)c2c1O [Evans blue]	no self-fluorescence			O	Dye-evoked fluorescence colour [2, 7]: O
CC[n+]1c(-c2ccccc2)c2cc(N)ccc2c2ccc(N)cc21 [Homidium chloride]	has self-fluorescence	Y	O		Dye-evoked fluorescence colour [3, 7]: RO; Dye-evoked fluorescence colour [3, 8]: RO
CC1=NN(c2cc(Cl)c(S(=O)(=O)[O-])cc2Cl)C(=O)C1N=Nc1ccc(S(=O)(=O)[O-])cc1.[Na+].[Na+] (stereo not drawn) [Lissamine fast yellow]	no self-fluorescence				
O=S(=O)([O-])c1cccc(N=Nc2ccc(Nc3ccccc3)cc2)c1.[Na+] [Metanyl yellow]	no self-fluorescence				

Now from value to molecule, other results behind:

Self-fluorescence present or not [1]	Self-fluorescence colour [1, 5]	Self-fluorescence colour [1, 6]	Dye-evoked fluorescence colour [2, 8]	Molecule	further results
no self-fluorescence			G	CC[N+](CC)=c1ccc2nc3c(cc(N)c4ccccc43)oc-2c1 [Nile blue]	Dye-evoked fluorescence colour [2, 7]: O
no self-fluorescence			O	Cc1cc(-c2ccc(/N=N/c3c(S(=O)(=O)[O-])cc4cc(S(=O)(=O)[O-])cc(N)c4c3O)c(C)c2)ccc1/N=N/c1c(S(=O)(=O)[O-])cc2cc(S(=O)(=O)[O-])cc(N)c2c1O.[Na+].[Na+].[Na+].[Na+] [Tripan blue]	Dye-evoked fluorescence colour [4]: P
had self-fluorescence	O	O		CC1=C(/C=C/C(C)=C/C=C/C(C)=C/C=C/C=C(C)/C=C/C=C(C)/C=C/C2=C(C)CCCC2(C)C)C(C)(C)CCC1 [beta-Carotene]	
had self-fluorescence	W	Y		CC(C)CCC[C@@H](C)[C@H]1CC[C@H]2[C@@H]3CC=C4C[C@@H](O)CC[C@]4(C)[C@H]3CC[C@]12C [free Cholesterol]	
had self-fluorescence	W			phosphatidylcholine [PC]	
